In patent publication US10995091B2 (Proximagen, LLC, priority 2010, dated 2021):

Each molecule was assayed against T1, Human CXCR4 transfected HEK293 cells (Homo sapiens, UniProt P61073) (assay: CXCR4 functional calcium assay (calcium flux FLIPR, antagonism of SDF1 response)). Conditions: CXCR4 functional activity, antagonism of SDF1 (EC50 concentration), read-out: CXCR4 fKi.
T1 construct: expressed in transfected cells; host or cells: HEK293
Type: cell-based
Method in brief: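 Dose-dependent antagonism of the SDF1 response was read by FLIPR as Fluo-4 calcium signal (2 μM dye) in CXCR4-expressing human HEK293 cells, in HBSS with probenecid, BSA and HEPES at pH 7.4 and 37° C. Test compound was given before an EC50-level SDF1 challenge. Curves were then fitted.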

T1 sequence (P61073 whole entry): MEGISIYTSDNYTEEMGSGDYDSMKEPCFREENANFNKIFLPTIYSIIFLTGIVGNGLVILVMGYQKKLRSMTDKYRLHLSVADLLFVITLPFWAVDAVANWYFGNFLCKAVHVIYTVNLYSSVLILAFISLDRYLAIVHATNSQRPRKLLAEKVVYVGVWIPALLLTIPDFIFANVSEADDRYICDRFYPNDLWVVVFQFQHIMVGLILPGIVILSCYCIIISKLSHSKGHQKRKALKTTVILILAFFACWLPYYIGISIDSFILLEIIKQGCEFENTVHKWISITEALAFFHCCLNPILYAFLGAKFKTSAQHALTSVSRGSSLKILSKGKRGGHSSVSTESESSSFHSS

Row | Ki [nM] | Compound
1 | < 20 | O=C(Nc1ccncc1)c1cccc(N2CC[C@@H](NC[C@H]3CCN(C4CCCC4)C3)C2)n1 [Example 227, 6-[(3R)-3-({[(3R)-1-Cyclopentylpyrrolidin-3-yl]methyl}amino)pyrrolidin-1-yl]-N-(pyridin-4-yl)pyridine-2-carboxamide]
2 | 20 to 100 | COCC(C)N1CCC(N2CCCN(c3cccc(C(=O)NCC4CC4)n3)CC2)CC1 (stereo not shown) [Example 127, N-(Cyclopropylmethyl)-6-{4-[1-(1-methoxypropan-2-yl)piperidin-4-yl]-1,4-diazepan-1-yl}pyridine-2-carboxamide]
3 | 100 to 500 | CC(C)N1CCC(N2CCCN(c3cccc(-c4nc5ccc(C(F)(F)F)cc5[nH]4)n3)CC2)CC1 [Example 144, 2-(6-{4-[1-(Propan-2-yl)piperidin-4-yl]-1,4-diazepan-1-yl}pyridine-2-yl)-6-(trifluoromethyl)-1H-1,3-benzodiazole]
4 | 20 to 100 | CC(CC(F)(F)F)N1CCC(N2CCCN(c3cccc(C(=O)NCc4cccnc4)n3)CC2)CC1 (stereo not shown) [Example 90, N-(Pyridin-3-ylmethyl)-6-{4-[1-(4,4,4-trifluorobutan-2-yl)piperidin-4-yl]-1,4-diazepan-1-yl}pyridine-2-carboxamide]
5 | 100 to 500 | CC(C)N1CCC(N2CCCN(c3cccc(C(=O)Nc4ccc(Cl)cc4)n3)CC2)CC1 [Example 25, N-(4-Chlorophenyl)-6-{4-[1-(propan-2-yl)piperidin-4-yl]-1,4-diazepan-1-yl}pyridine-2-carboxamide]
6 | 100 to 500 | Cc1ccccc1CN1CCC(N2CCCN(c3cccc(C(=O)NCC4CC4)n3)CC2)CC1 [Example 131, N-(Cyclopropylmethyl)-6-(4-{1-[(2-methylphenyl)methyl]piperidin-4-yl}-1,4-diazepan-1-yl)pyridine-2-carboxamide]
7 | 500 to 1000 | O=C(NCC1CC1)c1cccc(N2CCCN(C3CCN(C4CC4)CC3)CC2)n1 [Example 62, N-(Cyclopropylmethyl)-6-[4-(1-cyclopropylpiperidin-4-yl)-1,4-diazepan-1-yl]pyridine-2-carboxamide]
8 | 100 to 500 | CC(C)N1CCC(N2CCCN(c3cccc(-c4cc5cnccc5[nH]4)n3)CC2)CC1 [Example 97, 1-[1-(Propan-2-yl)piperidin-4-yl]-4-(6-{1H-pyrrolo[3,2-c]pyridine-2-yl}pyridine-2-yl)-1,4-diazepane]
9 | 100 to 500 | CCc1cnc(-c2cccc(N3CCCN(C4CCN([C@@H](C)C(F)(F)F)CC4)CC3)n2)[nH]1 [Example 115, 1-[6-(4-Ethyl-1H-imidazol-2-yl)pyridine-2-yl]-4-{1-[(2S)-1,1,1-trifluoropropan-2-yl]piperidin-4-yl}-1,4-diazepane]
10 | 100 to 500 | Cc1ccnc(N2CCCN(C3CCN(Cc4ccccc4Cl)CC3)CC2)c1 [Example 264, 1-{1-[(2-Chlorophenyl)methyl]piperidin-4-yl}-4-(4-methylpyridin-2-yl)-1,4-diazepane]
11 | < 20 | CCc1cnc(-c2cccc(N3CCCN(C4CCN(C(C)C)CC4)CC3)n2)[nH]1 [Example 108, 1-[6-(4-Ethyl-1H-imidazol-2-yl)pyridine-2-yl]-4-[1-(propan-2-yl)piperidin-4-yl]-1,4-diazepane]
12 | < 20 | [2H]C1([2H])CCN(C2CCN(Cc3ccccc3Cl)CC2)CCN1c1cccc(C(=O)Nc2ccncc2)n1 [Example 180, 6-(4-{1-[(2-Chlorophenyl)methyl]piperidin-4-yl}-7,7-dihydrogenio-1,4-diazepan-1-yl)-N-(pyridin-4-yl)pyridine-2-carboxamide]
13 | 100 to 500 | O=C(NCC(F)(F)F)c1cccc(N2CCCN(C3CCN(Cc4ccccc4Cl)CC3)CC2)n1 [Example 48, 6-(4-{1-[(2-Chlorophenyl)methyl]piperidin-4-yl}-1,4-diazepan-1-yl)-N-(2,2,2-trifluoroethyl)pyridine-2-carboxamide]
14 | 20 to 100 | Cc1ccccc1CN1CCCC(N2CCN(c3cccc(C(=O)Nc4ccncc4)n3)CC2)CC1 (stereo not shown) [Example 240, 6-(4-{1-[(2-Methylphenyl)methyl]azepan-4-yl}piperazin-1-yl)-N-(pyridin-4-yl)pyridine-2-carboxamide]
15 | 20 to 100 | CC(C)N1CCC(N2CCCN(c3cccc(C(=O)Nc4ccccc4O)n3)CC2)CC1 [Example 24, N-(2-Hydroxyphenyl)-6-{4-[1-(propan-2-yl)piperidin-4-yl]-1,4-diazepan-1-yl}pyridine-2-carboxamide]
16 | 20 to 100 | CCCc1cnc(-c2cccc(N3CCCN(C4CCN(C(C)C)CC4)CC3)n2)[nH]1 [Example 109, 1-[1-(Propan-2-yl)piperidin-4-yl]-4-[6-(4-propyl-1H-imidazol-2-yl)pyridine-2-yl]-1,4-diazepane]
17 | < 20 | [2H]C1([2H])CCN(c2cccc(C(=O)Nc3ccncc3)n2)CCN1C1CCN([C@@H](C)C(F)(F)F)CC1 [Example 190, 6-(5,5-Dihydrogenio-4-{1-[(2S)-1,1,1-trifluoropropan-2-yl]piperidin-4-yl}-1,4-diazepan-1-yl)-N-(pyridin-4-yl)pyridine-2-carboxamide]

Row | Ki [nM] | Compound
18 | 100 to 500 | COCCNC(=O)c1cccc(N2CCCN(C3CCN(Cc4ccccc4Cl)CC3)CC2)n1 [Example 50, 6-(4-{1-[(2-Chlorophenyl)methyl]piperidin-4-yl}-1,4-diazepan-1-yl)-N-(2-methoxyethyl)pyridine-2-carboxamide]
19 | 100 to 500 | CC(C)N1CCC(N2CCCN(c3cccc(-c4nnc(C5CC5)o4)n3)CC2)CC1 [Example 172, 1-[6-(5-Cyclopropyl-1,3,4-oxadiazol-2-yl)pyridin-2-yl]-4-[1-(propan-2-yl)piperidin-4-yl]-1,4-diazepane]
20 | 100 to 500 | CC(C)N1CCC(N2CCCN(c3cccc(-c4ncc(C(C)(C)C)[nH]4)n3)CC2)CC1 [Example 113, 1-[6-(4-tert-Butyl-1H-imidazol-2-yl)pyridine-2-yl]-4-[1-(propan-2-yl)piperidin-4-yl]-1,4-diazepane]
21 | 100 to 500 | CC(C)N1CCC(N2CCCN(c3cccc(-c4cc5ccccc5n4C)n3)CC2)CC1 [Example 95, 1-Methyl-2-(6-{4-[1-(propan-2-yl)piperidin-4-yl]-1,4-diazepan-1-yl}pyridine-2-yl)-1H-indole]
22 | 20 to 100 | CC(C)N1CCC(N2CCCN(c3cccc(C(=O)NCc4nccs4)n3)CC2)CC1 [Example 39, 6-{4-[1-(Propan-2-yl)piperidin-4-yl]-1,4-diazepan-1-yl} N-(1,3-thiazol-2-ylmethyl)pyridine-2-carboxamide]
23 | 100 to 500 | CCCC(=O)c1cccc(N2CCCN(C3CCN(C(C)C)CC3)CC2)n1 [Example 219, 1-(6-{4-[1-(Propan-2-yl)piperidin-4-yl]-1,4-diazepan-1-yl}pyridin-2-yl)butan-1-one]
24 | 100 to 500 | CC(C)N1CCC(N2CCCN(c3cccc(-c4noc(C5CCCC5)n4)n3)CC2)CC1 [Example 162, 1-[6-(5-Cyclopentyl-1,2,4-oxadiazol-3-yl)pyridine-2-yl]-4-[1-(propan-2-yl)piperidin-4-yl]-1,4-diazepane]
25 | < 20 | CC(C)N1CCC(N2CCCN(c3cccc(C(=O)Nc4ccccc4)n3)CC2)CC1 [Example 23, N-Phenyl-6-{4-[1-(propan-2-yl)piperidin-4-yl]-1,4-diazepan-1-yl}pyridine-2-carboxamide]
26 | < 20 | [2H]C1([2H])CCN(c2cccc(C(=O)Nc3ccncc3)n2)CCN1C1CCN(Cc2ccccc2Cl)CC1 [Example 204, 6-(4-{1-[(2-Chlorophenyl)methyl]piperidin-4-yl}-5,5-dihydrogenio-1,4-diazepan-1-yl)-N-(pyridin-4-yl)pyridine-2-carboxamide]
27 | 100 to 500 | O=C(NCC1CC1)c1ccnc(N2CCCN(C3CCN(Cc4ccccc4Cl)CC3)CC2)c1 [Example 269, 2-(4-{1-[(2-chlorophenyl)methyl]piperidin-4-yl}-1,4-diazepan-1-yl)-N-(cyclopropylmethyl)pyridine-4-carboxamide]
28 | < 20 | O=C(Nc1ccncc1)c1cccc(N2CC[C@@H](NCC3CCN(C4CCCC4)CC3)C2)n1 [Example 228, 6-[(3R)-3-{[(1-Cyclopentylpiperidin-4-yl)methyl]amino}pyrrolidin-1-yl]-N-(pyridin-4-yl)pyridine-2-carboxamide]
29 | 100 to 500 | CC(C)N1CCC(N2CCCN(c3cccc(C(=O)N[C@@H]4CCOC4)n3)CC2)CC1 [Example 19, N-[(3R)-Oxolan-3-yl]-6-{4-[1-(propan-2-yl)piperidin-4-yl]-1,4-diazepan-1-yl}pyridine-2-carboxamide]
30 | 100 to 500 | CC(C)N1CCC(N2CCCN(c3cccc(-c4noc(CC(C)(C)C)n4)n3)CC2)CC1 [Example 160, 1-{6-[5-(2,2-Dimethylpropyl)-1,2,4-oxadiazol-3-yl]pyridine-2-yl}-4-[1-(propan-2-yl)piperidin-4-yl]-1,4-diazepane]
31 | 20 to 100 | O=C(NC1CCOCC1)c1cccc(N2CCCN(C3CCN(Cc4ccccc4Cl)CC3)CC2)n1 [Example 52, 6-(4-{1-[(2-Chlorophenyl)methyl]piperidin-4-yl}-1,4-diazepan-1-yl)-N-(oxan-4-yl)pyridine-2-carboxamide]
32 | < 20 | CC(C)(C)N1CCC(N2CCCN(c3cccc(C(=O)Nc4ccncc4)n3)CC2)CC1 [Example 80, 6-[4-(1-tert-Butylpiperidin-4-yl)-1,4-diazepan-1-yl]-N-(pyridine-4-yl)pyridine-2-carboxamide]
33 | 500 to 1000 | CCCCNC(=O)c1cccc(N2CCCN(C3CCN(Cc4ccccc4Cl)CC3)CC2)n1 [Example 138, N-Butyl-6-(4-{1-[(2-chlorophenyl)methyl]piperidin-4-yl}-1,4-diazepan-1-yl)pyridine-2-carboxamide]
34 | 20 to 100 | O=C(NCC1CC1)c1cccc(N2CCCN(C3CCN([C@H]4CCc5ccccc54)CC3)CC2)n1 [Example 77, N-(Cyclopropylmethyl)-6-(4-{1-[(1S)-2,3-dihydro-1H-inden-1-yl]piperidin-4-yl}-1,4-diazepan-1-yl)pyridine-2-carboxamide]
